# “Also recorded” adds a separate entry of the source. Numbered stars: 1 amine (or outer) side, 2 acyl side, 3 side chain; on linkers, the order of the positions; unused ones are H or OH. Bridge positions count the residues as written; N and C are the ends. Square brackets hold non-standard residues; d marks the D form. Peptide text beside a SMILES is read from it. I, II: the chains in the order shown. Gly(N-piperonyl) = O=C(O)CNCc1ccc2c(c1)OCO2; X1 = CC(c1ccccc1)N(CC(=O)[*:2])[*:1]; Nlys = NCCCCNCC(=O)O; Nme = COCCNCC(=O)O
# Assays:
# Format in all cases: cell-based
# H358 unsorted cells = experiment: Scratch (wound healing) assay; conditions: 10 μM and higher, 24 hours
# Method: Another stem-cell-associated phenotype is the capacity of stem cells to migrate and repair gaps in a tissue or cell culture. To determine if this capacity is affected by PCS2D1, a scratch (would healing) assay was performed on H358 cells after 24 hour treatment of 0, 0.3, 1, 3 10, 30 or 100 μM of PCS2D1. Each well of confluent H358 unsorted cells was scratched using a 1000 μL pipet tip, washed, then treated with PCS2D1 for 24 hours. Each well was then stained, and the average area of the remaining scratch was calculated from a microscope viewing window near the center of the well.
# H358 colonies = experiment: Variation of the clonogenicity assay: treatment of established colonies, crystal violet and ALDEFluor staining
# Method: Another set of experiments were designed to evaluate if differentiated cells from CSCs were targeted by PCS2D1 as well. A variation of the clonogenicity assay was performed, where about 300 unsorted H358 cells were plated to 35 mm plates each and allowed to form colonies for 7 days. After that time, the colonies were treated with either 0, 1, 10, 30, or 100 μM of PCS2D1 for 24 hours, and then stained with crystal violet. The colonies were examined under a microscope. […] To determine if the cells lost are CSCs or the differentiated cells, ALDEFluor staining was performed against some of the colonies at 0 and 100 μM treatment.
# (§1) The clonogenicity assay was repeated with H358 cells, 500 cells/well, using 0, 10, 30 and 100 μM PCS2 treatment over 2 weeks. […] To confirm that this was due to the specific targeting on CSCs, the clonogenicity assay was performed again over 8 days, with the treatment performed from day 7 to 8 instead, to allow the colonies to establish. This was done alongside control cells plated on chamber slides and then grown under the same conditions.
# H358 cells = experiment: Clonogenicity assay under treatment; conditions: 2 weeks
# Method: To further validate that PCS2D1 inhibiting CSCs, the effects of PCS2D1 against a stem-cell-associated phenotype were studied with regards to the capacity to form colonies from a single cell by using the clonogenicity assay. About 300 cells were plated onto 35 mm cell culture plates with either 0, 1, 10, 30, or 100 μM of PCS2D1, and allowed to grow for 2 weeks. After staining with crystal violet, both the number of colonies and the overall morphology of the colonies were evaluated.
# as §1
# unsorted H358 cells [1] = experiment: Expression of CSC markers after treatment; conditions: 100 μM, after 96 hours of treatment
# H358 ALDH− cells = experiment: MTS survival assay on sorted cells
# Method: To verify that PCS2-treatment has a direct effect on the survival of CSCs, an MTS survival assay was performed on sorted H358 cells. The assay is based on the reduction of MTS tetrazolium compound by viable cells to generate a colored formazan product that is soluble in cell culture media. This conversion is thought to be carried out by NAD(P)H-dependent dehydrogenase enzymes in metabolically active cells. The formazan dye produced by viable cells was quantified by measuring the absorbance at 490-500 nm. H358 cells were stained using the ALDEFluor, then the ALDH+ cells were isolated by the MD Anderson Flow Cytometry and Cell Sorting core. The sorted ALDH+ cells were treated with 1 nM to 100 μM of PCS2D1 for 24 hours, and then the relative amount of surviving cells was determined by MTS. The number of cells in the ALDH+ fraction decreased under the treatment of PCS2D1, while ALDH^− cells were unaffected (FIG. 10). […] Furthermore, this peptoid is still at the initial stage of development and further modifications can be made to optimize and increase the potency.
# To verify that PCS2-treatment has a direct effect on the survival of CSCs, an MTS survival assay was performed on sorted H358 cells as described in Example 4. The number of cells in the ALDH+ fraction decreased under the treatment of PCS2D1, while ALDH^− cells were unaffected (FIG. 21). The IC50 was around 2 μM. […]
# unsorted H358 cells [2] = experiment: MTS cell-proliferation assay on unsorted cells
# Method: Further experiments were conducted to evaluate how PCS2 affects the proliferation of unsorted cancer cell populations. The standard MTS cell-proliferation assay was performed on unsorted H358 cells (known to contain 5-15% of CSCs) and measured proliferation rates over 6 days, at concentrations ranging from 100 nM to 100 μM of PCS2D1.
smiles,measurement,setting,value
COCCNCC(=O)N(CCCCN)CC(=O)N(CC(=O)N(CC(=O)N(CCCCN)CC(=O)N[C@@H](CCCCN)C(=O)N[C@H](CCCCN)C(=O)N[C@@H](CCSC)C(=O)NCCCC[C@H](NC(=O)[C@H](CCSC)NC(=O)[C@@H](CCCCN)NC(=O)[C@H](CCCCN)NC(=O)CN(CCCCN)C(=O)CN(C(=O)CN(Cc1ccc2c(c1)OCO2)C(=O)CN(CCCCN)C(=O)CNCCOC)C(C)c1ccccc1)C(N)=O)C(C)c1ccccc1)Cc1ccc2c(c1)OCO2 (stereo partly drawn) [PCS2D1] (I: H-[Nme][Nlys][Gly(N-piperonyl)][X1][Nlys]K[dK]MK-NH2 / II: H-[Nme][Nlys][Gly(N-piperonyl)][X1][Nlys]K[dK]M; amide I:9-II:C; N-terminus and C-terminus assumed),migration (area of remaining scratch),H358 unsorted cells,migration was significantly inhibited
same,ALDH fluorescence of colonies,"H358 colonies; 100 μM, ALDEFluor staining",no significant fluorescence; also recorded: complete loss of ALDH^+ cells
same,ALDH fluorescent cell number,"H358 colonies; 10-30 μM, Aldefluor assay",reduction in fluorescent cell number
same,loss of cells from the colony center,"H358 colonies; colonies grown 7 days, then 24 hours treatment at 10 μM and higher",significant loss of cells from the colony center; also recorded: significant loss of “central” cells
same,morphology of the colonies,H358 cells; 10 μM,significantly more dispersed colonies
same,colonies formed,"H358 cells; about 300 cells, 30 and 100 μM",significant decrease in colonies formed
same,expression of ALDH1A3,unsorted H358 cells [1],significant drop
same,expression of PLEC,unsorted H358 cells [1],significant drop
same,expression of SOX2,unsorted H358 cells [1],significant drop
same,effect on ALDH− cells,H358 ALDH− cells,unaffected
same,overall growth of the H358 cell line,"unsorted H358 cells [2]; 30 μM and higher, by day 2",significantly decreased
same,growth of the H358 cell line,"unsorted H358 cells [2]; 100 μM, over 6 days",no significant growth

# — patent publication US11865157B2, “Compositions and methods of targeting cancer stem cells” (University of Houston System, priority 2016, dated 2024)
